Measurements taken from US9045450B2, “Method for chemical synthesis of antrocin and use thereof for suppressing non-small cell lung cancer” (KAIYEW INVESTMENT CORP., priority 2011, dated 2015).
Entries after “also recorded” stand apart in the source; their conditions may differ.

Columns and labels:
[1] = system: H441-L2G cells; experiment: Lung tumorigenesis in vivo, bioluminescence imaging and survival; design: species or system non-obese diabetic/severe combined immunodeficient mice; settings: for tumor growth: daily intraperitoneal injection
Experimental: […] cells (6×10^5/100 μl PBS) were intravenously injected into immunodeficient mice via lateral tail vein. Antrocin treatments (low dose of 5 mg/kg/day and high dose of 10 mg/kg/day) were performed by daily intraperitoneal injection into tumor-bearing mice over a period of four weeks. Weekly observations were performed and data were recorded for (A) VIS images, (B) Tumor growth, (C) Body weights, and (D) Survival curves.
(§1) The present invention further investigated anticancer effect of antrocin in vivo. H441-L2G cells expressing firefly luciferase and green fluorescent protein were implanted by intravenous injections via the lateral tail vein (6×10^5/100 μl PBS) into non-obese diabetic/severe combined immunodeficient mice. Daily intraperitoneal injections of antrocin (two groups of mice, a low dose of 5 mg/kg/day and a high dose of 10 mg/kg/day) were given over a period of four weeks to observe tumor growth.
Firefly luminescence genes (firefly luciferase) was introduced into H441 lung cancer stem cells by transgenesis, lung cancer cells (containing firefly luminescence genes) were then isolated from H441 lung cancer stem cells by FACS (Fluorescence-activated cell sorting) and implanted into immunodeficient mice subcutaneously or into the circulation system via the tail vein. IVIS imaging system (IVIS® Imaging System 200 Series, Xenogen) was used in the present embodiment for bioluminescent imaging. All mice were introduced with 150 mg/kg D-luciferin by intraperitoneal injection, after 10 minutes the mice were fixed in the darkroom of the IVIS200, the highly sensitive CCD camera of the IVIS 200 was used to detect the cold light radiated by firefly luminescence genes in H441 cancer cells. All mice were imaged for 120 seconds and the imaging time was shortened when the signal strength was saturated. All mice were anesthetized (2% isoflurane and 98% oxygen gas) and unconscious throughout the entire imaging process. Tumor sizes and signal strength radiated by the cold-light were compared and analyzed by using a software package of the IVI200. The inhibitory effect of antrocin on human lung cancer cells was assessed by using this bio-illumination-imaging system.
as §1, with “investigated the” for “investigated”, “immunodeficiency” for “immunodeficient”, “small” for “low”, “large” for “high”

[2] = system: H1975 cells; experiment: Apoptosis, flow cytometry; type: cell-based, human; settings: H1975, antrocin treatment for 48 hours, FIG. 4 (B)
[3] = system: normal human bronchial epithelial cells (BEAS-2B); experiment: Cytotoxicity, sulforhodamine B; type: cell-based; settings: antrocin 0.5-10 μM, two days, FIG. 4 (A)
Experimental: (§2) Human lung cancer cell lines (CL1-0, CL1-5, H1975, H441, PC9, A549) and human bronchial epithelia cell lines (BEAS-2B) were obtained from the Institute of Clinical Medicine, Taipei Medical University. The cells were grown and maintained in DMEM medium (Dulbecco's Modified Eagle's Medium and RPMI basal medium supplemented with 10% fetal bovine serum, 2 mM glutamine, […] streptomycin, and 100 U/ml penicillin in a wet incubator at 5% CO2.
Human lung cancer cells (CL1-0, CL1-5, H1975, H441, PC9, A549) and human bronchial epithelial cells (BEAS-2B) were seeded in 96-well culture plates (2000 cells/well) and incubated overnight in 100 μl complete DMEM. Equal amount of complete DMEM sample containing 50 μl antrocin (0.5-10 μM) was placed in other wells of the culture plates. Further, 100 μl complete DMEM sample was also placed in wells as the control group. After two days, total number of human cells in each well was measured using sulforhodamine B (a fluorescent protein dye). Briefly, human cells were fixed in 10% trichloroacetic acid and stained with 0.4% sulforhodamine B. After being stained for 20 minutes, the human cells were washed with 1% acetic acid, and then sulforhodamine B, which was bound with human cells, was dissolved in 10 mM tris base. The optical density was measured at 562 nm by a microtiter plate detector. […]

[4] = system: cyclin D1; experiment: Protein expression in H441 cells (FIG. 6); type: cell-based, human
Text: (§3) The inhibitory effect of antrocin on protein expression is presented as relative multiple.Beta-actin protein was the internal reference (loading control).

[5] = system: XIAP; experiment: Protein expression in H441 cells (FIG. 6); type: cell-based, human
Text: as §3

[6] = system: caspase-3 enzyme; experiment: Protein expression in H441 cells (FIG. 6); type: cell-based, human; settings: increasing dose
Text: as §3

[7] = system: breast cancer cells; settings: natural antrocin isolated from Antrodia; Rao et al., 2011; cited from earlier work
[8] = system: human non-small cell lung cancer cells (CL1-0, CL1-5, H1975, H441, PC9, A549); experiment: Cytotoxicity / cell proliferation, sulforhodamine B; type: cell-based; settings: NSCLC cell lines, antrocin 0.5-10 μM, two days, FIG. 4 (A)
Experimental: as §2
Lung cancer cell were grown in a medium supplemented with 10% fetal bovine serum until the cells grew to approximately 80% of their full-blown size. Old culture solution was drained, the lung cancer cells were washed with PBS buffer solution (phosphate buffered saline), and 10 ml of serum-free culture medium was added. Different pharmaceutical drugs were added according to experimental purposes, all reactions were carried out in an incubator at 37° C.
Human lung cancer cells (CL1-0, CL1-5, H1975, H441, PC9, A549) and human bronchial epithelial cells (BEAS-2B) were seeded in 96-well culture plates (2000 cells/well) and incubated overnight in 100 μl complete DMEM. […] After two days, total number of human cells in each well was measured using sulforhodamine B (a fluorescent protein dye). […] The optical density was measured at 562 nm by a microtiter plate detector. […]

[9] = system: H441 cells; experiment: Apoptosis, flow cytometry; type: cell-based, human; settings: H441, antrocin treatment for 48 hours, FIG. 4 (B)

## C=C1CC[C@H]2C(C)(C)CCC[C@@]23C(=O)OC[C@@H]13 [antrocin]
[1]; at the end of the experiment (the fiftieth day)
  increase of median survival time: at least 60%
[1]; low dose 5 mg/kg/day
  mice that survived for longer than 50 days: 75%
[1]; low dose 5 mg/kg/day, after two weeks
  tumor growth: inhibited after two weeks in half of the mice
[1]; low dose 5 mg/kg/day, third week
  tumor growth: tumor growth was observed in most of these mice
[1]; treated group, control group 28 days, FIG. 7 (D)
  median survival: > 50 days
[2]
  number of cells in early and late (final) stage of apoptosis: increase in the number of cells in early and late stage of apoptosis in a dose-dependent fashion; also recorded: increased significantly in a dose-dependent fashion
[3]
  cytotoxicity against normal human bronchial epithelial cells: no cytotoxicity
[4]
  inhibition of cyclin D1 protein expression: dose-dependently inhibited
[5]
  inhibition of XIAP protein expression: dose-dependently inhibited
[6]
  activation of caspase enzyme 3: markedly activated
[7]
  inhibition of cell proliferation in breast cancer cells: inhibited the cell proliferation; also recorded: effectively inhibited cell proliferation
[8]
  inhibitory effect on cancer cell proliferation: significant inhibitory effect
[9]
  number of cells in early and late (final) stage of apoptosis: increase in the number of cells in early and late stage of apoptosis in a dose-dependent fashion; also recorded: increased significantly in a dose-dependent fashion
